Experimental data as given in US5863776A, “Method of preparing apoenzyme” (Research Development Foundation, priority 1996, dated 1999).
Entries after “also recorded” stand apart in the source; their conditions may differ.

T1: MAO B (Homo sapiens, UniProt P27338)
T1 construct: expressed in transfected cells; host or cells: COS-7 (African green monkey), riboflavin-containing (Rib+) or riboflavin-depleted (Rib-), transient electroporation
T1 sequence (P27338 1-520): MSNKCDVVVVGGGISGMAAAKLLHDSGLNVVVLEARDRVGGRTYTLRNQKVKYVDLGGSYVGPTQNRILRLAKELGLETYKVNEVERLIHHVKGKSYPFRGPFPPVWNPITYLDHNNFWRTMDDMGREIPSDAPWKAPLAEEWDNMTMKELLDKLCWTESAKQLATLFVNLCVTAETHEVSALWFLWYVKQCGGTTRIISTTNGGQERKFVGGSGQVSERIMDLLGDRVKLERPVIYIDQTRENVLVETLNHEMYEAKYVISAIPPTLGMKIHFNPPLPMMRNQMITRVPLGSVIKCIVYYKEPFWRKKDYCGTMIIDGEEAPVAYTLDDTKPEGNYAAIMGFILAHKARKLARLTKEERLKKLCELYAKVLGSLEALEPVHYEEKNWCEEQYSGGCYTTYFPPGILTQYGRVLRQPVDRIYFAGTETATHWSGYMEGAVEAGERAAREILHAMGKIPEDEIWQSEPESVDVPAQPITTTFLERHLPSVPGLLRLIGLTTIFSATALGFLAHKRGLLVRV


Key:
MAO B [1] = biological target: T1, MAO B; assay: FAD coupling in intact cells: MAO B enzymatic activity after electroporation of MAO B cDNA with cofactor into Rib^- COS-7 cells ([^14 C] benzylamine substrate); type: cell-based; set-up: Percent of Holo-MAO B Activity: concentration or dose not given beside the values
Procedure: (§1) Wild-type or mutant MAO B cDNAs were transiently transfected into COS-7 cells by electroporation (23) as previously described (18). Briefly, Rib^+ - or Rib^- COS-7 cells were harvested during late log phase growth and resuspended to a concentration of 3.1×10^6 cells/ml in either riboflavin-containing or riboflavin-free medium, respectively. Wild-type or mutant MAO B cDNAs ([…]) were added to 0.8 ml of cell suspension. […] Electroporation was carried out in a Bio-Rad Gene Pulser with a setting of 250 V and 500 μF. Cells were resuspended in 15 ml of riboflavin-containing or riboflavin-free medium and incubated at 37° C. with 5% CO2. Transfected COS-7 cells were harvested at 48 hours and homogenized in a lysis solution containing 20 mM Tris-HCl, 1 mM EDTA, 0.5 mM PMSF, pH 8.0. The homogenate was diluted with an equal volume of the same buffer supplemented with 300 mM NaCl to obtain a 150 mM final NaCl concentration. Triton X-100 (Pierce) was added to the lysate to give a final concentration of 0.25%, and the samples were allowed to stir for 50 min. at 4° C. to extract MAO B from the outer mitochondrial membrane. After Triton extraction, the lysate was centrifuged at 1300×g for 5 min. at 4° C. to remove insoluble cell debris.
(§2) MAO B activity was assayed radiometrically by a modification of the method of Wurtman and Axelrod (26) as described previously (18). Briefly, the reaction mixture contained 200 μl of 50 mM sodium phosphate buffer (pH 7.4), 3.6 nmole of 55 mCi/mmol [^14 C] benzylamine hydrochloride (Amersham), 10 nmoles of unlabeled benzylamine and 10 μl of cell lysate. Samples were run in triplicate, and one out of each set was denatured with […] of 6N HCl prior to the addition of substrate to serve as an internal control. All reactions were incubated for 9 minutes at 37° C., and terminated by the addition of 25 μl of 6N HCl. The reaction product was extracted with 500 μl of toluene, and an aliquot (200 μl) of the organic phase from each sample was counted in liquid scintillation fluid (Bio-Safe) in a Beckman LB 3801 scintillation counter.
FMN or riboflavin were also capable of restoring approximately 75% of MAO B holoenzyme activity. However, only 40% of MAO B holoenzyme activity was obtained by the addition of 8α-hydroxyriboflavin.
Various cofactors were added with MAO B cDNA into Rib^- COS7 cells

MAO B [2] = biological target: T1, MAO B; assay: Quantitation of expressed MAO B protein by ELISA in transfected COS-7 cells; type: cell-based; set-up: MAO B Expressed: unit not given here; conditions: cofactor added with MAO B cDNA into Rib^- COS-7 cells; 48 hours; mean ± SE, three experiments
Procedure: Total protein concentrations of samples containing MAO B holoenzyme, apoenzyme, or variant MAO Bs were determined by a MicroBCA kit (Pierce). All samples were then adjusted to equal protein concentrations and assayed for MAO B protein by ELISA using a modification of the method of Yeomanson and Billett (25) as described previously (18).
MAO B cDNA was expressed sequentially at different time intervals in these cells during this riboflavin depletion process (FIG. 2). Each data point in FIG. 2 represents an individual expression assay. For each assay, a sample of COS-7 cells grown in riboflavin-free medium were transfected with MAO B cDNA via electroporation. Concurrently, Rib^+ COS-7 cells were transfected with MAO B cDNA to serve as a control. Following incubation for 48 hours, the cells were homogenized and assays were performed to determine protein concentration, MAO B concentration by ELISA using polyclonal antibodies, and MAO B activity using [^14 C] benzylamine.
An equal amount of MAO B cDNA (15 μg) was expressed in both types of […]

MAO B [3] = biological target: T1, MAO B; assay: FAD coupling in vitro (flavinylation assay in cell lysate, 30° C.); type: biochemical; conditions: 30° C.
Procedure: (- - - x - - - ). […] The enzymatic activity of each sample was determined at 1 hour time intervals using [^14 C] benzylamine as substrate.
Apo-MAO B was obtained by expressing MAO B cDNA in Rib^- COS-7 cells. The cells were then harvested and homogenized as described above. One half of the lysate was stirred in the presence of 0.25% Triton X-100 at 4° C. for 50 min. to extract apo-MAO B from the outer mitochondrial membrane. The second half of the lysate was not extracted with Triton X-100 to permit MAO B to remain in the membrane. […] Assays were also carried out in the presence of an energy mixture (10 mM ATP, 32 mM PEP and 2.4 μg pyruvate kinase) and 25% glycerol in the reaction vials. Each sample was run in triplicate. After 1, 2 or 3 hours incubation at 30° C., each sample was assayed for MAO B activity as described below.
as §2

[4] = test system: L-gulono-g-lactone oxidase; conditions: cited from earlier work
MAO B [5] = assay: [^14 C] FAD incorporation into wild-type or mutant MAO B in Rib^- COS-7 cells (immunoprecipitation, fluorography); type: binding, human; conditions: about 59 kDa; equal MAO B concentrations
Procedure: Mutagenesis was carried out by the method of Deng and Nickoloff (22) using a Transformer Site-directed Mutagenesis kit (Clontech). Glu in position 34 was replaced with Asp (E34D), Gln (E34Q), or Ala (E34A), and Val in position 10 was replaced with Ile (V10I) as described by Kwan et al. (18).
as §1
Transfected Rib^+ - or Rib^- COS-7 cells were homogenized, and extracted with 0.25% Triton X-100 for 50 minutes at 4° C. The cell lysates were centrifuged at 1300×g for 5 minutes, and an aliqout of each supernatant was analyzed for MAO B concentration by ELISA. All supernatants were then adjusted to equal MAO B concentration and incubated with polyclonal goat anti-MAO B antibody (10 μg) overnight at 4° C. Protein-G Sepharose beads (Pierce) were added (50 μl) and incubation was continued for 3 hours. The protein-G Sepharose/goat antibody/MAO B immmunocomplex was collected by centrifugation at 10,000×g for 20 seconds and washed 6 times with 150 μl of 20 mM Tris buffer, pH 8.0. The immunocomplex was then dissolved in SDS-PAGE sample buffer and analyzed by Western blot or fluorography.
The immunoprecipitated proteins (obtained as described above) were subjected to electrophoresis in a 10% SDS-polyacrylamide gel and examined by Western blotting as previously described (18). The immunoprecipitated proteins (obtained as described above) were subjected to electrophoresis in a 10% SDS-polyacrylamide gel. The SDS-PAGE gel was fixed by soaking in 7% acetic acid, 10% methanol, 83% H2 O for 1 hour, and then processed for fluorography as described by Bonner and Laskey (27). The dried gel was exposed to Kodak X-OMAT AR film at -80° C. for 2 weeks.
The expressed wild-type and variant MAO Bs were adjusted to equal concentrations using ELISA before immunoprecipitation, and then analyzed by fluorography. The amount of incorporation of [^14 C] […] FAD was incorporated into the enzyme.

MAO B [6] = conditions: mutation at Glu^34; cited from earlier work

Row | Percent of Holo-MAO B Activity (MAO B [1]; relative to holo-MAO B expressed in Rib^+ COS-7 cells, 2880 min) [%] | MAO B Expressed (MAO B [2]) | Molecule | restoration of active MAO B (in words) (MAO B [1]; cofactor added with MAO B cDNA during electroporation) | Enzymatic Activity (MAO B [1]; cofactor added with MAO B cDNA into Rib^- COS-7 cells, 48 hours, mean ± SE, three experiments) | MAO B catalytic activity after adding exogenous FAD to apo-MAO B (MAO B [3]; Triton extracted or non-extracted lysate) | MAO B activity after adding exogenous FAD to apo-MAO B (MAO B [3]; with energy mixture and glycerol) | covalently bound FAD [4] | enzymatic activity upon addition of FAD [4] | [^14 C] FAD incorporation (band on fluorogram) (MAO B [5]) | loss of activity (in words) (MAO B [6])
1 | ~75 | 0.86 ± 0.03 | Cc1cc2nc3c(=O)[nH]c(=O)nc-3n(C[C@H](O)[C@H](O)[C@H](O)COP(=O)(O)OP(=O)(O)OC[C@H]3O[C@@H](n4cnc5c(N)ncnc54)[C@H](O)[C@@H]3O)c2cc1C [FAD] | equal levels of MAO B activity; also recorded: active MAO B (containing FAD) was obtained | 0.85 ± 0.01 μmol benzylamine/minute/mg MAO | no MAO B catalytic activity was observed; also recorded: MAO B activity could not be regenerated | no MAO B activity was obtained; also recorded: unsuccessful | no covalently bound FAD could be obtained | Enzymatic activity was observed |  | 
2 |  |  | E34A: MAO B with Glu in position 34 replaced with Ala (protein, UniProt P27338 2-520, looked up, variant E34A) Amine oxidase …: SNKCDVVVVGGGISGMAAAKLLHDSGLNVVVLAARDRVGGRTYTLRNQKVKYVDLGGSYVGPTQNRILRLAKELGLETYKVNEVERLIHHVKGKSYPFRGPFPPVWNPITYLDHNNFWRTMDDMGREIPSDAPWKAPLAEEWDNMTMKELLDKLCWTESAKQLATLFVNLCVTAETHEVSALWFLWYVKQCGGTTRIISTTNGGQERKFVGGSGQVSERIMDLLGDRVKLERPVIYIDQTRENVLVETLNHEMYEAKYVISAIPPTLGMKIHFNPPLPMMRNQMITRVPLGSVIKCIVYYKEPFWRKKDYCGTMIIDGEEAPVAYTLDDTKPEGNYAAIMGFILAHKARKLARLTKEERLKKLCELYAKVLGSLEALEPVHYEEKNWCEEQYSGGCYTTYFPPGILTQYGRVLRQPVDRIYFAGTETATHWSGYMEGAVEAGERAAREILHAMGKIPEDEIWQSEPESVDVPAQPITTTFLERHLPSVPGLLRLIGLTTIFSATALGFLAHKRGLLVRV |  |  |  |  |  |  | did not exhibit bands | complete loss of activity; also recorded: devoid of enzymatic activity
3 |  |  | E34Q: MAO B with Glu in position 34 replaced with Gln (protein, UniProt P27338 2-520, looked up, variant E34Q) Amine oxidase …: SNKCDVVVVGGGISGMAAAKLLHDSGLNVVVLQARDRVGGRTYTLRNQKVKYVDLGGSYVGPTQNRILRLAKELGLETYKVNEVERLIHHVKGKSYPFRGPFPPVWNPITYLDHNNFWRTMDDMGREIPSDAPWKAPLAEEWDNMTMKELLDKLCWTESAKQLATLFVNLCVTAETHEVSALWFLWYVKQCGGTTRIISTTNGGQERKFVGGSGQVSERIMDLLGDRVKLERPVIYIDQTRENVLVETLNHEMYEAKYVISAIPPTLGMKIHFNPPLPMMRNQMITRVPLGSVIKCIVYYKEPFWRKKDYCGTMIIDGEEAPVAYTLDDTKPEGNYAAIMGFILAHKARKLARLTKEERLKKLCELYAKVLGSLEALEPVHYEEKNWCEEQYSGGCYTTYFPPGILTQYGRVLRQPVDRIYFAGTETATHWSGYMEGAVEAGERAAREILHAMGKIPEDEIWQSEPESVDVPAQPITTTFLERHLPSVPGLLRLIGLTTIFSATALGFLAHKRGLLVRV |  |  |  |  |  |  | did not exhibit bands | complete loss of activity; also recorded: devoid of enzymatic activity
